This test concerns the target T1, human S1P1 receptor (Homo sapiens, UniProt P21453).
T1 construct: expressed in transfected cells; membranes were used
The experiment in a line: GTP γ35S binding assay, S1P1 receptor activity. In kind it is biochemical. The note with it: for % stimulation: S1P1 receptor, agonist-induced stimulation; for pEC50: membranes of cells stably expressing the S1P1 receptor, test compounds 0.08 to 5,000 nM. As to the method:
The S1P1 activity of the compounds according to the invention, were tested using the GTP γ^35S binding assay. The compounds were assessed for their ability to activate or block activation of the human S1P1 receptor in cells stably expressing the S1P1 receptor.
GTP γ^35S binding was measured in the medium containing (mM) HEPES 25, pH 7.4, MgCl2 10, NaCl 100, dithitothreitol 0.5, digitonin 0.003%, 0.2 nM GTP γ^35S, and 5 μg membrane protein in a volume of 150 μl. Test compounds were included in the concentration range from 0.08 to 5,000 nM unless indicated otherwise. Membranes were incubated with 100 μM 5′-adenylylimmidodiphosphate for 30 min, and subsequently with 10 μM GDP for 10 min on ice. Drug solutions and membrane were mixed, and then reactions were initiated by adding GTP γ^35S and continued for 30 min at 25° C. Reaction mixtures were filtered over Whatman GF/B filters under vacuum, and washed three times with 3 mL of ice-cold buffer (HEPES 25, pH7.4, MgCl2 10 and NaCl 100). Filters were dried and mixed with scintillant, and counted for ^35S activity using a β-counter. Agonist-induced GTP γ^35S binding was obtained by subtracting that in the absence of agonist. Binding data were analyzed using a non-linear regression method. In case of antagonist assay, the reaction mixture contained 10 nM S1P in the presence of test antagonist at concentrations ranging from 0.08 to 5000 nM.
Activity potency: S1P1 receptor from GTP γ^35S: nM, (EC50), % stimulation, […]
Background: Binding of GTPγS marks nucleotide exchange on a G protein.

The results in this text go back to patent US8530462B2, “Indole modulators of S1P receptors” (Allergan, Inc., priority 2010, dated 2013).

pEC50: −log10 of the molar value.

T1 sequence (P21453 whole entry): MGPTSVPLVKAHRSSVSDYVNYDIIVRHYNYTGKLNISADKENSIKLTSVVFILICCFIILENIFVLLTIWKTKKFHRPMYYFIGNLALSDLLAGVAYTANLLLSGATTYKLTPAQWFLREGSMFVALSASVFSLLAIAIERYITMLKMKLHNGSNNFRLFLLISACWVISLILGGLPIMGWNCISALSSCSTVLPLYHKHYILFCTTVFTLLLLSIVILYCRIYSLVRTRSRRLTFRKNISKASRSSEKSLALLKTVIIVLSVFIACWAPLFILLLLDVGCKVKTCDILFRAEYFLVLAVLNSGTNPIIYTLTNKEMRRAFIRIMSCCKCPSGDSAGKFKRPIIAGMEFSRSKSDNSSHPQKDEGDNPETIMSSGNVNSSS

With `Cc1ccc2c(c1)c(-c1nc(-c3ccc(CN4CC(C(=O)O)C4)cc3)no1)cn2Cc1ccc(C)c(C)c1` [Compound 1, 1-(4-{5-[1-(3,4-dimethylbenzyl)-5-methyl-1H-indol-3-yl]-1,2,4-oxadiazol-3-yl}benzyl)azetidine-3-carboxylic acid], the % stimulation turned out to be 92% and the pEC50 – broadly, −log10 of the EC50, conventionally taken in molar units – is 6.37.
Consider `Cc1ccc(Cn2cc(-c3nc(-c4ccc(CN5CC(C(=O)O)C5)cc4)no3)c3cc(F)ccc32)cc1C` [Compound 2, 1-(4-{5-[1-(3,4-dimethylbenzyl)-5-fluoro-1H-indol-3-yl]-1,2,4-oxadiazol-3-yl}benzyl)azetidine-3-carboxylic acid], for which the % stimulation stood at 94% and the pEC50 is 6.13.
For the compound `COc1ccc2c(c1)c(-c1nc(-c3ccc(CN4CC(C(=O)O)C4)cc3)no1)c(C)n2Cc1ccc(C)c(C)c1` [Compound 3, 1-(4-{5-[1-(3,4-dimethylbenzyl)-5-methoxy-2-methyl-1H-indol-3-yl]-1,2,4-oxadiazol-3-yl}benzyl)azetidine-3-carboxylic acid], the % stimulation was determined as 82% and the pEC50 is 5.81.
In the same order, the values of `Cc1ccc(Cn2cc(-c3nc(-c4ccc(CN5CC(C(=O)O)C5)cc4)no3)c3ccccc32)cc1C` [Compound 4, 1-(4-{5-[1-(3,4-dimethylbenzyl)-1H-indol-3-yl]-1,2,4-oxadiazol-3-yl}benzyl)azetidine-3-carboxylic acid] are 92% and 5.99.
Compound `O=C(O)C1CN(Cc2ccc(-c3noc(-c4cn(Cc5ccccc5)c5ccc(F)cc45)n3)cc2)C1` [Compound 5, 1-{4-[5-(1-benzyl-5-fluoro-1H-indol-3-yl)-1,2,4-oxadiazol-3-yl]benzyl}azetidine-3-carboxylic acid] gave a % stimulation of 91% and a pEC50 of 6.72.
`c1ccc(Cn2cc(-c3nc(-c4ccc(Cn5ccnc5)cc4)no3)c3ccccc32)cc1` [Compound 6, 1-benzyl-3-{3-[4-(1H-imidazol-1-ylmethyl)phenyl]-1,2,4-oxadiazol-5-yl}-1H-indole] gave a % stimulation of 86% and a pEC50 of 5.94.
`O=C(O)C1CN(Cc2ccc(-c3noc(-c4cn(Cc5ccccc5)c5ccccc45)n3)cc2)C1` [Compound 8, 1-{4-[5-(1-benzyl-1H-indol-3-yl)-1,2,4-oxadiazol-3-yl]benzyl}azetidine-3-carboxylic acid]: the % stimulation was determined as 66% and the pEC50 was 6.31.
As to `Cc1ccc(Cn2c(C)c(-c3nc(-c4ccc(CN5CC(C(=O)O)C5)cc4)no3)c3cc(F)ccc32)cc1C` [Compound 9, 1-(4-{5-[1-(3,4-dimethylbenzyl)-5-fluoro-2-methyl-1H-indol-3-yl]-1,2,4-oxadiazol-3-yl}benzyl)azetidine-3-carboxylic acid], the % stimulation was 85% and the pEC50 is 6.00.
The compound `CNc1ncccc1-c1noc(-c2cn(Cc3ccccc3)c3ccccc23)n1` [Compound 10, 3-[5-(1-benzyl-1H-indol-3-yl)-1,2,4-oxadiazol-3-yl]-N-methylpyridin-2-amine] showed a % stimulation of 88% and a pEC50 of 6.15.
`CNc1ncccc1-c1noc(-c2cn(Cc3ccc(C)c(C)c3)c3ccc(F)cc23)n1` [Compound 11, 3-{5-[1-(3,4-dimethylbenzyl)-5-fluoro-1H-indol-3-yl]-1,2,4-oxadiazol-3-yl}-N-methylpyridin-2-amine]: the pEC50 is 6.24.
`O=C(O)CCNCc1ccc(-c2noc(-c3cn(Cc4ccccc4)c4ccccc34)n2)cc1` [Compound 12, 3-({4-[5-(1-benzyl-1H-indol-3-yl)-1,2,4-oxadiazol-3-yl]benzyl}amino)propanoic acid] showed a pEC50 of 6.40.
Take `Cc1ccc2c(c1)c(-c1nc(-c3ccc(CNCCC(=O)O)cc3)no1)cn2Cc1ccc(C)c(C)c1` [Compound 13, 3-[(4-{5-[1-(3,4-dimethylbenzyl)-5-methyl-1H-indol-3-yl]-1,2,4-oxadiazol-3-yl}benzyl)amino]propanoic acid]: the % stimulation was determined as 82% and the pEC50 was 6.45.
`Cc1ccc(Cn2cc(-c3nc(-c4ccc(CNCCC(=O)O)cc4)no3)c3cc(F)ccc32)cc1C` [Compound 14, 3-[(4-{5-[1-(3,4-dimethylbenzyl)-5-fluoro-1H-indol-3-yl]-1,2,4-oxadiazol-3-yl}benzyl)amino]propanoic acid] showed a % stimulation of 93% and a pEC50 of 5.83.
In the same order, the values of `O=C(O)CCCCNCc1ccc(-c2noc(-c3cn(Cc4ccccc4)c4ccccc34)n2)cc1` [Compound 15, 5-({4-[5-(1-benzyl-1H-indol-3-yl)-1,2,4-oxadiazol-3-yl]benzyl}amino)pentanoic acid] are 108% and 5.99.
`Cc1ccc(Cn2cc(-c3nc(-c4ccc(CNCCC(=O)O)cc4)no3)c3ccccc32)cc1C` [Compound 16, 3-[(4-{5-[1-(3,4-dimethylbenzyl)-1H-indol-3-yl]-1,2,4-oxadiazol-3-yl}benzyl)amino]propanoic acid] showed a % stimulation of 81% and a pEC50 of 5.84.
Taken in the same sequence, the figures for `O=C(O)CCNCc1ccc(-c2noc(-c3cn(Cc4ccccc4)c4ccc(F)cc34)n2)cc1` [Compound 17, 3-({4-[5-(1-benzyl-5-fluoro-1H-indol-3-yl)-1,2,4-oxadiazol-3-yl]benzyl}amino)propanoic acid] were 100% and 6.89.
